These are literature values, as cited in patent US20250134912A1 (Theaprin Pharmaceuticals, Inc., priority 2021, published 2025).

Data set [1] deals with critically ill children with suspected zinc deficiency. As to conditions: in vivo, iv, 0.75 mg/kg/day.
Data set [2] has as its system hospitalized patients with COVID-19. To be noted: aspirin used was not an aspirin/theanine cocrystal.
The subject of another data set is patients with COVID-19. As to conditions: 31 patients with COVID-19, in comparison to the controlled patients.
For the next data set, the system named is SARS-COV-2. As to conditions: SARS-COV-2, in vitro.
For data set [3] the following is noted: at 25° C.

Take `[Zn]` [Elemental zinc]: the adverse effects entry in data set [1] is on record as “without producing any adverse effects”.
In the case of `CC(=O)Oc1ccccc1C(=O)O` [aspirin, acetylsalicylic acid], the “mechanical ventilation, ICU admission, and in-hospital mortality” value in data set [2] is “decrease”.
For the molecule `OCCN(CCO)c1nc(N2CCCCC2)c2nc(N(CCO)CCO)nc(N3CCCCC3)c2n1` [dipyridamole, 2,6 bis-(diethanolamino)-4,8 dipiperidino-pyrimido-(5,4-d)pyrimidine], in the data set with patients with COVID-19, the clinical outcomes is “markedly improved”; the “lymphocyte and plasma platelet recovery” value was “increased”. Also, the D-Dimer entry in the data set on patients with COVID-19 (P>0.05) is listed as “significantly decreased”. For the same molecule, the “viral replication in vitro” value with SARS-COV-2 was “suppressed”.
With `[Cl-].[Cl-].[Zn+2]` [zinc chloride, Zinc chloride], the water solubility in data set [3] is 432 g/100 ml water.
